In patent EP1171107B1, “USE OF A PHARMACEUTICAL COMPOSITION IN THE MANUFACTURE OF A MEDICAMENT FOR THE TREATMENT OF PATHOLOGICAL CONDITIONS OF THE EYE CAUSED BY BACTERIA, VIRUSES, FUNGI, YEASTS AND PROTOZOA” (Dr. GERHARD MANN chem.-pharm. Fabrik GmbH, priority 1999, dated 2000):

How the values were obtained:
Assay type in all cases: cell-based
E.coli [1] = test: Quantitative germ count (re-isolation, surface method) after inoculating the test preparation; settings: Ausgangskeimzahl 2,7 x 10^5 KBE/ml
Sc. pneumoniae [2] = test: as above; settings: Ausgangskeimzahl 3,7 x 10^5 KBE/ml
In short: (§1)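 Test preparations were contaminated with ca. 10^5 CFU/ml of each strain, then sampled at 2, 6, 8, 24, 32, 48 and 72 h. Cells were centrifuged 10 min at 3000 rpm, washed in NaCl-peptone buffer, resuspended and spiral-plated on Caso agar at 33±2°C for max. 4 days. Detection limit was 100 CFU/ml.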

S.aureus = test: as above; settings: Ausgangskeimzahl 2,6 x 10^5 KBE/ml
In short: as §1

H.influenzae [3] = test: as above; settings: Ausgangskeimzahl 2,8 x 10^5 KBE/ml
In short: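 Surviving germs were counted by the surface method: an aliquot was spiral-plated on Kochblut-Agar and incubated at 33±2°C for max. 4 Tage, giving re-isolated counts in KBE/ml with a detection limit of 100 KBE/ml. Initial germ counts were also set by spiral-plater surface plating. The H. influenzae strain was pretested biochemically for identity and purity.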

P.aeruginosa [4] = test: as above; settings: Ausgangskeimzahl 2,7 x 10^5 KBE/ml
In short: as §1

S.epidermidis [5] = test: as above; settings: Ausgangskeimzahl 2,1 x 10^5 KBE/ml
In short: as §1

E.coli [6] = test: Qualitative examination: enrichment of the inoculated test preparation in broth
In short: (§2)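 Test preparations (5 ml) inoculated with ~10^5 CFU/ml; after 2, 6, 8, 24, 32, 48 and 72 h, centrifuged, washed and resuspended in NaCl-peptone buffer. 2 ml enriched in 20 ml Caso broth (Fildes medium for H. influenzae), incubated up to 4 days at 33±2°C; negative enrichment indicates elimination of inoculum.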

Sc. pneumoniae [7] = test: as above
In short: as §2

S.epidermidis [8] = test: as above
In short: as §2

P.aeruginosa [9] = test: as above
In short: as §2

H.influenzae [10] = test: as above
In short: as §2

Benzalkoniumchlorid [Benzalkoniumchlorid 0,006 Gew.-%]
Ergebnis der Reisolierung (in KBE/ml) (E.coli [1]; 2 h after inoculation): <100 KBE/ml
Ergebnis der Reisolierung (in KBE/ml) (E.coli [1]; 4 h after inoculation): <100 KBE/ml
Ergebnis der Reisolierung (in KBE/ml) (E.coli [1]; 6 h after inoculation): <100 KBE/ml
Ergebnis der Reisolierung (in KBE/ml) (E.coli [1]; 8 h after inoculation): <100 KBE/ml
Ergebnis der Reisolierung (in KBE/ml) (E.coli [1]; 24 h after inoculation): <100 KBE/ml
Ergebnis der Reisolierung (in KBE/ml) (E.coli [1]; 32 h after inoculation): <100 KBE/ml
Ergebnis der Reisolierung (in KBE/ml) (E.coli [1]; 48 h after inoculation): <100 KBE/ml
Ergebnis der Reisolierung (in KBE/ml) (E.coli [1]; 72 h after inoculation): <100 KBE/ml
Ergebnis der Reisolierung (in KBE/ml) (Sc. pneumoniae [2]; 2 h after inoculation): <100 KBE/ml
Ergebnis der Reisolierung (in KBE/ml) (Sc. pneumoniae [2]; 4 h after inoculation): <100 KBE/ml
Ergebnis der Reisolierung (in KBE/ml) (Sc. pneumoniae [2]; 6 h after inoculation): <100 KBE/ml
Ergebnis der Reisolierung (in KBE/ml) (Sc. pneumoniae [2]; 8 h after inoculation): <100 KBE/ml
Ergebnis der Reisolierung (in KBE/ml) (Sc. pneumoniae [2]; 24 h after inoculation): <100 KBE/ml
Ergebnis der Reisolierung (in KBE/ml) (Sc. pneumoniae [2]; 32 h after inoculation): <100 KBE/ml
Ergebnis der Reisolierung (in KBE/ml) (Sc. pneumoniae [2]; 48 h after inoculation): <100 KBE/ml
Ergebnis der Reisolierung (in KBE/ml) (Sc. pneumoniae [2]; 72 h after inoculation): <100 KBE/ml
Ergebnis der Reisolierung (in KBE/ml) (S.aureus; 2 h after inoculation): <100 KBE/ml
Ergebnis der Reisolierung (in KBE/ml) (S.aureus; 4 h after inoculation): <100 KBE/ml
Ergebnis der Reisolierung (in KBE/ml) (S.aureus; 6 h after inoculation): <100 KBE/ml
Ergebnis der Reisolierung (in KBE/ml) (S.aureus; 8 h after inoculation): <100 KBE/ml
Ergebnis der Reisolierung (in KBE/ml) (S.aureus; 24 h after inoculation): <100 KBE/ml
Ergebnis der Reisolierung (in KBE/ml) (S.aureus; 32 h after inoculation): <100 KBE/ml
Ergebnis der Reisolierung (in KBE/ml) (S.aureus; 48 h after inoculation): <100 KBE/ml
Ergebnis der Reisolierung (in KBE/ml) (S.aureus; 72 h after inoculation): <100 KBE/ml
Ergebnis der Reisolierung (in KBE/ml) (H.influenzae [3]; 2 h after inoculation): <100 KBE/ml
Ergebnis der Reisolierung (in KBE/ml) (H.influenzae [3]; 4 h after inoculation): <100 KBE/ml
Ergebnis der Reisolierung (in KBE/ml) (H.influenzae [3]; 6 h after inoculation): <100 KBE/ml
Ergebnis der Reisolierung (in KBE/ml) (H.influenzae [3]; 8 h after inoculation): <100 KBE/ml
Ergebnis der Reisolierung (in KBE/ml) (H.influenzae [3]; 24 h after inoculation): <100 KBE/ml
Ergebnis der Reisolierung (in KBE/ml) (H.influenzae [3]; 32 h after inoculation): <100 KBE/ml
Ergebnis der Reisolierung (in KBE/ml) (H.influenzae [3]; 48 h after inoculation): <100 KBE/ml
Ergebnis der Reisolierung (in KBE/ml) (H.influenzae [3]; 72 h after inoculation): <100 KBE/ml
Ergebnis der Reisolierung (in KBE/ml) (P.aeruginosa [4]; 2 h after inoculation): <100 KBE/ml
Ergebnis der Reisolierung (in KBE/ml) (P.aeruginosa [4]; 4 h after inoculation): <100 KBE/ml
Ergebnis der Reisolierung (in KBE/ml) (P.aeruginosa [4]; 6 h after inoculation): <100 KBE/ml
Ergebnis der Reisolierung (in KBE/ml) (P.aeruginosa [4]; 8 h after inoculation): <100 KBE/ml
Ergebnis der Reisolierung (in KBE/ml) (P.aeruginosa [4]; 24 h after inoculation): <100 KBE/ml
Ergebnis der Reisolierung (in KBE/ml) (P.aeruginosa [4]; 32 h after inoculation): <100 KBE/ml
Ergebnis der Reisolierung (in KBE/ml) (P.aeruginosa [4]; 48 h after inoculation): <100 KBE/ml
Ergebnis der Reisolierung (in KBE/ml) (P.aeruginosa [4]; 72 h after inoculation): <100 KBE/ml
Ergebnis der Reisolierung (in KBE/ml) (S.epidermidis [5]; 2 h after inoculation): <100 KBE/ml
Ergebnis der Reisolierung (in KBE/ml) (S.epidermidis [5]; 4 h after inoculation): <100 KBE/ml
Ergebnis der Reisolierung (in KBE/ml) (S.epidermidis [5]; 6 h after inoculation): <100 KBE/ml
Ergebnis der Reisolierung (in KBE/ml) (S.epidermidis [5]; 8 h after inoculation): <100 KBE/ml
Ergebnis der Reisolierung (in KBE/ml) (S.epidermidis [5]; 24 h after inoculation): <100 KBE/ml
Ergebnis der Reisolierung (in KBE/ml) (S.epidermidis [5]; 32 h after inoculation): <100 KBE/ml
Ergebnis der Reisolierung (in KBE/ml) (S.epidermidis [5]; 48 h after inoculation): <100 KBE/ml
Ergebnis der Reisolierung (in KBE/ml) (S.epidermidis [5]; 72 h after inoculation): <100 KBE/ml
Ergebnis der Reisolierung qualitiativ (+/-) nach Anreicherung (E.coli [6]; 2 h after inoculation): -
Ergebnis der Reisolierung qualitiativ (+/-) nach Anreicherung (E.coli [6]; 4 h after inoculation): -
Ergebnis der Reisolierung qualitiativ (+/-) nach Anreicherung (E.coli [6]; 6 h after inoculation): -
Ergebnis der Reisolierung qualitiativ (+/-) nach Anreicherung (E.coli [6]; 8 h after inoculation): -
Ergebnis der Reisolierung qualitiativ (+/-) nach Anreicherung (E.coli [6]; 24 h after inoculation): -
Ergebnis der Reisolierung qualitiativ (+/-) nach Anreicherung (E.coli [6]; 32 h after inoculation): -
Ergebnis der Reisolierung qualitiativ (+/-) nach Anreicherung (E.coli [6]; 48 h after inoculation): -
Ergebnis der Reisolierung qualitiativ (+/-) nach Anreicherung (E.coli [6]; 72 h after inoculation): -
Ergebnis der Reisolierung qualitiativ (+/-) nach Anreicherung (Sc. pneumoniae [7]; 2 h after inoculation): -
Ergebnis der Reisolierung qualitiativ (+/-) nach Anreicherung (Sc. pneumoniae [7]; 4 h after inoculation): -
Ergebnis der Reisolierung qualitiativ (+/-) nach Anreicherung (Sc. pneumoniae [7]; 6 h after inoculation): -
Ergebnis der Reisolierung qualitiativ (+/-) nach Anreicherung (Sc. pneumoniae [7]; 8 h after inoculation): -
Ergebnis der Reisolierung qualitiativ (+/-) nach Anreicherung (Sc. pneumoniae [7]; 24 h after inoculation): -
Ergebnis der Reisolierung qualitiativ (+/-) nach Anreicherung (Sc. pneumoniae [7]; 32 h after inoculation): -
Ergebnis der Reisolierung qualitiativ (+/-) nach Anreicherung (Sc. pneumoniae [7]; 48 h after inoculation): -
Ergebnis der Reisolierung qualitiativ (+/-) nach Anreicherung (Sc. pneumoniae [7]; 72 h after inoculation): -
Ergebnis der Reisolierung qualitiativ (+/-) nach Anreicherung (S.epidermidis [8]; 2 h after inoculation): -
Ergebnis der Reisolierung qualitiativ (+/-) nach Anreicherung (S.epidermidis [8]; 4 h after inoculation): -
Ergebnis der Reisolierung qualitiativ (+/-) nach Anreicherung (S.epidermidis [8]; 6 h after inoculation): -
Ergebnis der Reisolierung qualitiativ (+/-) nach Anreicherung (S.epidermidis [8]; 8 h after inoculation): -
Ergebnis der Reisolierung qualitiativ (+/-) nach Anreicherung (S.epidermidis [8]; 24 h after inoculation): -
Ergebnis der Reisolierung qualitiativ (+/-) nach Anreicherung (S.epidermidis [8]; 32 h after inoculation): -
Ergebnis der Reisolierung qualitiativ (+/-) nach Anreicherung (S.epidermidis [8]; 48 h after inoculation): -
Ergebnis der Reisolierung qualitiativ (+/-) nach Anreicherung (S.epidermidis [8]; 72 h after inoculation): -
Ergebnis der Reisolierung qualitiativ (+/-) nach Anreicherung (P.aeruginosa [9]; 2 h after inoculation): -
Ergebnis der Reisolierung qualitiativ (+/-) nach Anreicherung (P.aeruginosa [9]; 4 h after inoculation): -
Ergebnis der Reisolierung qualitiativ (+/-) nach Anreicherung (P.aeruginosa [9]; 6 h after inoculation): -
Ergebnis der Reisolierung qualitiativ (+/-) nach Anreicherung (P.aeruginosa [9]; 8 h after inoculation): -
Ergebnis der Reisolierung qualitiativ (+/-) nach Anreicherung (P.aeruginosa [9]; 24 h after inoculation): -
Ergebnis der Reisolierung qualitiativ (+/-) nach Anreicherung (P.aeruginosa [9]; 32 h after inoculation): -
Ergebnis der Reisolierung qualitiativ (+/-) nach Anreicherung (P.aeruginosa [9]; 48 h after inoculation): -
Ergebnis der Reisolierung qualitiativ (+/-) nach Anreicherung (P.aeruginosa [9]; 72 h after inoculation): -
Ergebnis der Reisolierung qualitiativ (+/-) nach Anreicherung (H.influenzae [10]; 2 h after inoculation): -
Ergebnis der Reisolierung qualitiativ (+/-) nach Anreicherung (H.influenzae [10]; 4 h after inoculation): -
Ergebnis der Reisolierung qualitiativ (+/-) nach Anreicherung (H.influenzae [10]; 6 h after inoculation): -
Ergebnis der Reisolierung qualitiativ (+/-) nach Anreicherung (H.influenzae [10]; 8 h after inoculation): -
Ergebnis der Reisolierung qualitiativ (+/-) nach Anreicherung (H.influenzae [10]; 24 h after inoculation): -
Ergebnis der Reisolierung qualitiativ (+/-) nach Anreicherung (H.influenzae [10]; 32 h after inoculation): -
Ergebnis der Reisolierung qualitiativ (+/-) nach Anreicherung (H.influenzae [10]; 48 h after inoculation): -
Ergebnis der Reisolierung qualitiativ (+/-) nach Anreicherung (H.influenzae [10]; 72 h after inoculation): -
